According to US7803992B2, “Methods and compositions for expressing an herbicide-tolerant polynucleotide” (Pioneer Hi-Bred International, Inc., priority 2005, dated 2010):

Legend:
Assay type in all cases: in vivo
[1] = tested on: parent elite stiff stalk inbred corn; test: Postemergence herbicide application in greenhouse: fresh shoot weight and visual injury; conditions: for pest or weed control at 200 g/ha: Zea mays, post-emergence, read-out: % Visual Injury; for Fresh Weight: weighed 2 weeks after treatment, untreated 76.4 g
[2] = tested on: Heterozygous GAT-HRA corn; test: as above; conditions: for pest or weed control at 200 g/ha: Zea mays, post-emergence, read-out: % Visual Injury; for Fresh Weight: weighed 2 weeks after treatment, untreated 98.8 g
[3] = tested on: parent elite stiff stalk inbred corn; test: Preemergence herbicide application in greenhouse: fresh shoot weight and visual injury; conditions: for pest or weed control at 200 g/ha: Zea mays, pre-emergence, 672 h, read-out: % Visual Injury; for Fresh Weight: fresh shoots weighed 4 weeks after treatment, untreated 36.7 g
[4] = tested on: Heterozygous GAT-HRA corn; test: as above; conditions: for pest or weed control at 200 g/ha: Zea mays, pre-emergence, 672 h, read-out: % Visual Injury; for Fresh Weight: fresh shoots weighed 4 weeks after treatment, untreated 47.0 g
[5] = postemergence, 200 g/ha (glyphosate 3472 g ae/ha, glufosinate ammonium 1870 g/ha), 0% no injury, 100% plant death, mean of four replications
[6] = postemergence, 200 g/ha (glyphosate 3472 g ae/ha, glufosinate ammonium 1870 g/ha), mean of four replications
[7] = preemergence, 200 g/ha, 0% no injury, 100% plant death, mean of four replications
[8] = preemergence, 200 g/ha, mean of four replications

COc1cc(OC)nc(NC(=O)NS(=O)(=O)N(C)S(C)(=O)=O)n1 [Amidosulfuron]
pest or weed control at 200 g/ha [1, 5]: 71%
Fresh Weight [1, 6]: 32.0 g
pest or weed control at 200 g/ha [2, 5]: 8%
Fresh Weight [2, 6]: 107.4 g
pest or weed control at 200 g/ha [3, 7]: 97%
Fresh Weight [3, 8]: 14.2 g
pest or weed control at 200 g/ha [4, 7]: 25%
Fresh Weight [4, 8]: 47.7 g

COc1cc(OC)nc(NC(=O)NS(=O)(=O)c2c(-c3nnn(C)n3)cnn2C)n1 [Azimsulfuron]
pest or weed control at 200 g/ha [1, 5]: 100%
Fresh Weight [1, 6]: 1.5 g
pest or weed control at 200 g/ha [2, 5]: 20%
Fresh Weight [2, 6]: 87.9 g
pest or weed control at 200 g/ha [3, 7]: 100%
Fresh Weight [3, 8]: 0.0 g
pest or weed control at 200 g/ha [4, 7]: 40%
Fresh Weight [4, 8]: 49.1 g

COC(=O)c1ccccc1CS(=O)(=O)NC(=O)Nc1nc(OC)cc(OC)n1 [Bensulfuron-methyl]
pest or weed control at 200 g/ha [1, 5]: 93%
Fresh Weight [1, 6]: 9.0 g
pest or weed control at 200 g/ha [2, 5]: 14%
Fresh Weight [2, 6]: 103.3 g
pest or weed control at 200 g/ha [3, 7]: 23%
Fresh Weight [3, 8]: 28.4 g
pest or weed control at 200 g/ha [4, 7]: 10%
Fresh Weight [4, 8]: 39.9 g

CCOc1nc(F)cc2nc(S(=O)(=O)Nc3c(Cl)cccc3C(=O)OC)nn12 [Chloransulam-methyl]
% Visual Injury [1, 5]: 96%
Fresh Weight [1, 6]: 6.8 g
% Visual Injury [2, 5]: 3%
Fresh Weight [2, 6]: 104.4 g
% Visual Injury [3, 7]: 3%
Fresh Weight [3, 8]: 5.5 g
% Visual Injury [4, 7]: 3%
Fresh Weight [4, 8]: 44.9 g

COc1nc(C)nc(NC(=O)NS(=O)(=O)c2ccccc2Cl)n1 [Chlorsulfuron]
pest or weed control at 200 g/ha [1, 5]: 100%
Fresh Weight [1, 6]: 1.7 g
pest or weed control at 200 g/ha [2, 5]: 13%
Fresh Weight [2, 6]: 105.2 g
pest or weed control at 200 g/ha [3, 7]: 100%
Fresh Weight [3, 8]: 0.0 g
pest or weed control at 200 g/ha [4, 7]: 33%
Fresh Weight [4, 8]: 48.4 g

CCOc1nc(NC)nc(NC(=O)NS(=O)(=O)c2ccccc2C(=O)OC)n1 [Ethametsulfuron-methyl]
pest or weed control at 200 g/ha ([1]; […]): 96%
Fresh Weight [1, 6]: 5.6 g
pest or weed control at 200 g/ha ([2]; […]): 6%
Fresh Weight [2, 6]: 98.0 g
pest or weed control at 200 g/ha [3]: 100%
Fresh Weight [3, 8]: 1.6 g
pest or weed control at 200 g/ha [4]: 88%
Fresh Weight [4, 8]: 50.1 g

CCOc1ccccc1OS(=O)(=O)NC(=O)Nc1nc(OC)cc(OC)n1 [Ethoxysulfuron]
pest or weed control at 200 g/ha [1, 5]: 88%
Fresh Weight [1, 6]: 24.3 g
pest or weed control at 200 g/ha [2, 5]: 15%
Fresh Weight [2, 6]: 79.3 g
pest or weed control at 200 g/ha [3, 7]: 63%
Fresh Weight [3, 8]: 28.1 g
pest or weed control at 200 g/ha [4, 7]: 25%
Fresh Weight [4, 8]: 40.0 g

COc1nn(C(=O)NS(=O)(=O)c2ccccc2OC(F)(F)F)c(=O)n1C [Flucarbazone Na^+, Flucarbazone]
% Visual Injury [1, 5]: 100%
Fresh Weight [1, 6]: 3.1 g
% Visual Injury [2, 5]: 14%
Fresh Weight [2, 6]: 86.0 g
% Visual Injury [3, 7]: 100%
Fresh Weight [3, 8]: 0.0 g
% Visual Injury [4, 7]: 40%
Fresh Weight [4, 8]: 48.8 g

Cc1ccn2nc(S(=O)(=O)Nc3c(F)cccc3F)nc2n1 [Flumetsulam]
pest or weed control at 200 g/ha [1, 5]: 85%
Fresh Weight [1, 6]: 12.8 g
pest or weed control at 200 g/ha [2, 5]: 3%
Fresh Weight [2, 6]: 103.8 g
pest or weed control at 200 g/ha [3, 7]: 13%
Fresh Weight [3, 8]: 24.6 g
pest or weed control at 200 g/ha [4, 7]: 13%
Fresh Weight [4, 8]: 39.1 g

COC(=O)c1ccc(C(F)(F)F)nc1S(=O)(=O)NC(=O)Nc1nc(OC)cc(OC)n1 [Flupyrsulfuron-methyl Na^+, Flupyrsulfuron-methyl]
% Visual Injury [1, 5]: 95%
Fresh Weight [1, 6]: 5.2 g
% Visual Injury [2, 5]: 4%
Fresh Weight [2, 6]: 95.5 g
% Visual Injury [3, 7]: 87%
Fresh Weight [3, 8]: 23.6 g
% Visual Injury [4, 7]: 90%
Fresh Weight [4, 8]: 45.8 g

COc1cc(OC)nc(NC(=O)NS(=O)(=O)c2cc(NC=O)ccc2C(=O)N(C)C)n1 [Foramsulfuron]
pest or weed control at 200 g/ha [1, 5]: 28%
Fresh Weight [1, 6]: 62.5 g
pest or weed control at 200 g/ha [2, 5]: 8%
Fresh Weight [2, 6]: 80.6 g
pest or weed control at 200 g/ha [3, 7]: 5%
Fresh Weight [3, 8]: 30.6 g
pest or weed control at 200 g/ha [4, 7]: 7%
Fresh Weight [4, 8]: 39.1 g

CP(=O)(O)CCC(N)C(=O)O (centres unmarked) [Glufosinate ammonium]
pest or weed control at 200 g/ha ([1]; […]): 99%
Fresh Weight [1, 6]: 2.4 g
pest or weed control at 200 g/ha ([2]; […]): 1%
Fresh Weight [2, 6]: 112.3 g

COC(=O)c1c(Cl)nn(C)c1S(=O)(=O)NC(=O)Nc1nc(OC)cc(OC)n1 [Halosulfuron-methyl]
pest or weed control at 200 g/ha ([1]; […]): 14%
Fresh Weight [1, 6]: 58.1 g
pest or weed control at 200 g/ha ([2]; […]): 8%
Fresh Weight [2, 6]: 94.5 g
pest or weed control at 200 g/ha [3]: 30%
Fresh Weight [3, 8]: 28.9 g
pest or weed control at 200 g/ha [4]: 15%
Fresh Weight [4, 8]: 40.1 g

COCc1cnc(C2=NC(C)(C(C)C)C(=O)N2)c(C(=O)O)c1 (centres unmarked) [Imazamox]
pest or weed control at 200 g/ha [1, 5]: 100%
Fresh Weight [1, 6]: 2.2 g
pest or weed control at 200 g/ha [2, 5]: 4%
Fresh Weight [2, 6]: 90.9 g
pest or weed control at 200 g/ha [3, 7]: 99%
Fresh Weight [3, 8]: 0.8 g
pest or weed control at 200 g/ha [4, 7]: 13%
Fresh Weight [4, 8]: 47.5 g

CC(C)C1(C)N=C(c2nc3ccccc3cc2C(=O)O)NC1=O (centres unmarked) [Imazaquin]
pest or weed control at 200 g/ha ([1]; […]): 100%
Fresh Weight [1, 6]: 4.4 g
pest or weed control at 200 g/ha ([2]; […]): 2%
Fresh Weight [2, 6]: 113.3 g
pest or weed control at 200 g/ha [3]: 99%
Fresh Weight [3, 8]: 1.5 g
pest or weed control at 200 g/ha [4]: 28%
Fresh Weight [4, 8]: 45.4 g

CCc1cnc(C2=NC(C)(C(C)C)C(=O)N2)c(C(=O)O)c1 (centres unmarked) [Imazethapyr]
pest or weed control at 200 g/ha [1, 5]: 97%
Fresh Weight [1, 6]: 6.4 g
pest or weed control at 200 g/ha [2, 5]: 9%
Fresh Weight [2, 6]: 93.4 g
pest or weed control at 200 g/ha [3, 7]: 69%
Fresh Weight [3, 8]: 24.4 g
pest or weed control at 200 g/ha [4, 7]: 20%
Fresh Weight [4, 8]: 50.0 g

COC(=O)c1ccc(I)cc1S(=O)(=O)NC(=O)Nc1nc(C)nc(OC)n1 [Iodosulfuron-methyl Na^+, Iodosulfuron-methyl]
% Visual Injury [1, 5]: 100%
Fresh Weight [1, 6]: 3.5 g
% Visual Injury [2, 5]: 1%
Fresh Weight [2, 6]: 95.0 g
% Visual Injury [3, 7]: 92%
Fresh Weight [3, 8]: 24.4 g
% Visual Injury [4, 7]: 5%
Fresh Weight [4, 8]: 52.5 g

COc1cc(OC)nc(NC(=O)NS(=O)(=O)c2ncccc2C(=O)N(C)C)n1 [Nicosulfuron]
pest or weed control at 200 g/ha [1, 5]: 24%
Fresh Weight [1, 6]: 62.7 g
pest or weed control at 200 g/ha [2, 5]: 0%
Fresh Weight [2, 6]: 94.7 g
pest or weed control at 200 g/ha [3, 7]: 43%
Fresh Weight [3, 8]: 33.6 g
pest or weed control at 200 g/ha [4, 7]: 0%
Fresh Weight [4, 8]: 50.3 g

COC(=O)c1ccccc1S(=O)(=O)NC(=O)Nc1nc(OC(F)F)cc(OC(F)F)n1 [Primisulfuron-methyl]
pest or weed control at 200 g/ha ([1]; […]): 75%
Fresh Weight [1, 6]: 16.6 g
pest or weed control at 200 g/ha ([2]; […]): 5%
Fresh Weight [2, 6]: 101.0 g
pest or weed control at 200 g/ha [3]: 68%
Fresh Weight [3, 8]: 19.5 g
pest or weed control at 200 g/ha [4]: 7%
Fresh Weight [4, 8]: 37.9 g

CCCOc1nn(C(=O)NS(=O)(=O)c2ccccc2C(=O)OC)c(=O)n1C [Propoxycarbazone Na^+, Propoxycarbazone]
% Visual Injury [1, 5]: 100%
Fresh Weight [1, 6]: 1.9 g
% Visual Injury [2, 5]: 9%
Fresh Weight [2, 6]: 101.2 g
% Visual Injury [3, 7]: 100%
Fresh Weight [3, 8]: 0.6 g
% Visual Injury [4, 7]: 100%
Fresh Weight [4, 8]: 46.7 g

COc1nc(C)nc(NC(=O)NS(=O)(=O)c2ccccc2CCC(F)(F)F)n1 [Prosulfuron]
pest or weed control at 200 g/ha [1, 5]: 25%
Fresh Weight [1, 6]: 53.6 g
pest or weed control at 200 g/ha [2, 5]: 29%
Fresh Weight [2, 6]: 91.3 g
pest or weed control at 200 g/ha [3, 7]: 68%
Fresh Weight [3, 8]: 20.9 g
pest or weed control at 200 g/ha [4, 7]: 9%
Fresh Weight [4, 8]: 43.3 g

CO/N=C(/C)c1cccc(Oc2nc(OC)cc(OC)n2)c1C(=O)OC [Pyriminobac-methyl]
pest or weed control at 200 g/ha ([1]; […]): 93%
Fresh Weight [1, 6]: 7.6 g
pest or weed control at 200 g/ha ([2]; […]): 4%
Fresh Weight [2, 6]: 95.2 g
pest or weed control at 200 g/ha [3]: 83%
Fresh Weight [3, 8]: 30.4 g
pest or weed control at 200 g/ha [4]: 20%
Fresh Weight [4, 8]: 39.9 g

COc1cc(OC)nc(Sc2cccc(Cl)c2C(=O)[O-])n1.[Na+] [Pyrithiobac Na^+, Pyrithiobac]
% Visual Injury [1, 5]: 100%
Fresh Weight [1, 6]: 2.8 g
% Visual Injury [2, 5]: 9%
Fresh Weight [2, 6]: 87.9 g
% Visual Injury [3, 7]: 100%
Fresh Weight [3, 8]: 0.0 g
% Visual Injury [4, 7]: 0%
Fresh Weight [4, 8]: 48.6 g

COC(=O)c1ccccc1S(=O)(=O)NC(=O)Nc1nc(C)cc(C)n1 [Sulfometuron-methyl]
pest or weed control at 200 g/ha ([1]; […]): 100%
Fresh Weight [1, 6]: 2.0 g
pest or weed control at 200 g/ha ([2]; […]): 2%
Fresh Weight [2, 6]: 104.5 g
pest or weed control at 200 g/ha [3]: 100%
Fresh Weight [3, 8]: 0.0 g
pest or weed control at 200 g/ha [4]: 6%
Fresh Weight [4, 8]: 47.3 g
